Laboratory results reported in US20230085307A1, “PYRIDAZINONE COMPOUND AND HERBICIDE” (NISSAN CHEMICAL CORPORATION, priority 2019, published 2023).

Columns and labels:
windgrass [1] = assay: Test Example 5: herbicidal effect by foliage application, plastic box (Table 20, symbol L); type: in vivo, windgrass (Apera spica-venti); settings: foliage application, AAH 320 g/ha, three weeks after application
Summary of the method: (§1)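 Plants sown in sterilized diluvial soil and grown 14 days in a greenhouse at 25° C to 30° C, then sprayed on the foliage with the compound's emulsion diluted in water to a predetermined herbicide amount. Injury to weeds and crops scored three weeks after application on a visual rating scale.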

wild oat [2] = assay: Test Example 4: herbicidal effect by soil treatment (Table 19, symbol I); type: in vivo, wild oat (Avena fatua); settings: AAH 320 g/ha
Source text: (§2) [Test Example 4] Herbicidal Effect Test by Soil Treatment
(§3) Sterilized diluvial soil was placed in a plastic box having a length of 21 cm, a width of 13 cm, and a depth of 7 cm. The seeds of each of southern crabgrass, green foxtail, barnyard grass, wild oat, blackgrass, Italian ryegrass, windgrass, velvetleaf, redroot pigweed, lambsquarters, chickweed, false cleavers, persian speedwell, corn, soybean, rice, wheat, beet, and rapeseed were sowed in a spot-like manner and covered with the soil having a thickness of about 1.5 cm. Subsequently, the emulsion agent of the compound of the present invention prepared according to Formulation Example 2 was diluted with water so as to achieve a predetermined herbicide amount, and the diluted emulsion agent was uniformly applied to the surface of the soil with a small-sized spray. The plastic box was placed in a greenhouse at 25° C. to 30° C. for growth of the plants. Three weeks after the herbicide application, the effect of the herbicide on each plant was evaluated according to the criteria of Test Example 1.

redroot pigweed [3] = assay: Test Example 5: herbicidal effect by foliage application, plastic box (Table 20, symbol N); type: in vivo, redroot pigweed (Amaranthus retroflexus); settings: foliage application, AAH 320 g/ha, three weeks after application
Summary of the method: as §1

velvetleaf [4] = assay: Test Example 4: herbicidal effect by soil treatment (Table 19, symbol M); type: in vivo, velvetleaf (Abutilon theophrasti); settings: AAH 320 g/ha
Summary of the method: (§4)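 Seeds were sown in sterilized diluvial soil and covered with about 1.5 cm of soil. An emulsion formulation diluted with water to a predetermined herbicide amount was sprayed evenly onto the soil surface. Plants grew in a greenhouse at 25° C. to 30° C., and the effect was scored three weeks after application using criteria from an earlier test.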

green foxtail [5] = assay: Test Example 4: herbicidal effect by soil treatment (Table 19, symbol G); type: in vivo, green foxtail (Setaria viridis); settings: AAH 320 g/ha
Summary of the method: as §4

chickweed [6] = assay: Test Example 5: herbicidal effect by foliage application, plastic box (Table 20, symbol P); type: in vivo, common chickweed (Stellaria media); settings: foliage application, AAH 320 g/ha, three weeks after application
Summary of the method: as §1

rice flat sedge = assay: Test Example 3: herbicidal effect by foliage application, Wagner pot (Table 18, symbol E); type: in vivo, rice flat sedge (Cyperus iria); settings: 320 g/ha
Summary of the method: (§5)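 Plants were sown in alluvial soil held under 0.1–0.5 cm standing water and grown 14 days in a greenhouse at 25–30 °C. An emulsifiable formulation, water-diluted to the set dose, was then sprayed onto the foliage, and effects were scored three weeks later using previously defined criteria.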

barnyard grass [7] = assay: Test Example 5: herbicidal effect by foliage application, plastic box (Table 20, symbol H); type: in vivo, barnyard grass (Echinochloa crus-galli); settings: foliage application, AAH 320 g/ha, three weeks after application
Summary of the method: as §1

windgrass [8] = assay: Test Example 4: herbicidal effect by soil treatment (Table 19, symbol L); type: in vivo, windgrass (Apera spica-venti); settings: AAH 320 g/ha
Source text: as §2, §3

lambsquarters [9] = assay: Test Example 5: herbicidal effect by foliage application, plastic box (Table 20, symbol O); type: in vivo, lambsquarters (Chenopodium album); settings: foliage application, AAH 320 g/ha, three weeks after application
Summary of the method: as §1

velvetleaf [10] = assay: Test Example 5: herbicidal effect by foliage application, plastic box (Table 20, symbol M); type: in vivo, velvetleaf (Abutilon theophrasti); settings: foliage application, AAH 320 g/ha, three weeks after application
Summary of the method: as §1

Chinese sprangletop = assay: Test Example 3: herbicidal effect by foliage application, Wagner pot (Table 18, symbol D); type: in vivo, chinese sprangletop (Leptochloa chinensis); settings: 320 g/ha
Summary of the method: as §5

green foxtail [11] = assay: Test Example 5: herbicidal effect by foliage application, plastic box (Table 20, symbol G); type: in vivo, green foxtail (Setaria viridis); settings: foliage application, AAH 320 g/ha, three weeks after application
Summary of the method: as §1

southern crabgrass [12] = assay: Test Example 4: herbicidal effect by soil treatment (Table 19, symbol F); type: in vivo, southern crabgrass (Digitaria ciliaris); settings: AAH 320 g/ha
Summary of the method: as §4

blackgrass [13] = assay: Test Example 5: herbicidal effect by foliage application, plastic box (Table 20, symbol J); type: in vivo, blackgrass (Alopecurus myosuroides); settings: foliage application, AAH 320 g/ha, three weeks after application
Summary of the method: as §1

persian speedwell = assay: Test Example 5: herbicidal effect by foliage application, plastic box (Table 20, symbol R); type: in vivo, Persian speedwell (Veronica persica); settings: foliage application, AAH 320 g/ha, three weeks after application
Summary of the method: as §1

Italian ryegrass [14] = assay: Test Example 4: herbicidal effect by soil treatment (Table 19, symbol K); type: in vivo, Italian ryegrass (Lolium multiflorum); settings: AAH 320 g/ha
Source text: as §2, §3

lambsquarters [15] = assay: Test Example 4: herbicidal effect by soil treatment (Table 19, symbol O); type: in vivo, lambsquarters (Chenopodium album); settings: AAH 320 g/ha
Summary of the method: as §4

barnyard grass [16] = assay: Test Example 3: herbicidal effect by foliage application, Wagner pot (Table 18, symbol H); type: in vivo, barnyard grass (Echinochloa crus-galli); settings: 320 g/ha
Summary of the method: as §5

redroot pigweed [17] = assay: Test Example 4: herbicidal effect by soil treatment (Table 19, symbol N); type: in vivo, redroot pigweed (Amaranthus retroflexus); settings: AAH 320 g/ha
Summary of the method: as §4

southern crabgrass [18] = assay: Test Example 5: herbicidal effect by foliage application, plastic box (Table 20, symbol F); type: in vivo, southern crabgrass (Digitaria ciliaris); settings: foliage application, AAH 320 g/ha, three weeks after application
Summary of the method: as §1

blackgrass [19] = assay: Test Example 4: herbicidal effect by soil treatment (Table 19, symbol J); type: in vivo, blackgrass (Alopecurus myosuroides); settings: AAH 320 g/ha
Summary of the method: as §4

barnyard grass [20] = assay: Test Example 4: herbicidal effect by soil treatment (Table 19, symbol H); type: in vivo, barnyard grass (Echinochloa crus-galli); settings: AAH 320 g/ha
Summary of the method: as §4

wild oat [21] = assay: Test Example 5: herbicidal effect by foliage application, plastic box (Table 20, symbol I); type: in vivo, wild oat (Avena fatua); settings: foliage application, AAH 320 g/ha, three weeks after application
Summary of the method: as §1

chickweed [22] = assay: Test Example 4: herbicidal effect by soil treatment (Table 19, symbol P); type: in vivo, common chickweed (Stellaria media); settings: AAH 320 g/ha
Summary of the method: as §4

Italian ryegrass [23] = assay: Test Example 5: herbicidal effect by foliage application, plastic box (Table 20, symbol K); type: in vivo, Italian ryegrass (Lolium multiflorum); settings: foliage application, AAH 320 g/ha, three weeks after application
Summary of the method: as §1

Cc1nn(C)c(=O)c(-c2c(-c3ccc([Si](C)(C)C)cc3)sc3ccccc23)c1O [1-153]
L: windgrass, herbicidal effect (windgrass [1]): 0 (Herbicidal rate of 5% or less (almost no effect))
I: wild oat, herbicidal effect rating (wild oat [2]): 0 (Herbicidal rate of 5% or less (almost no effect))
N: redroot pigweed, herbicidal effect (redroot pigweed [3]): 5 (Herbicidal rate of 90% or more (almost completely withered))
M: velvetleaf, herbicidal effect rating (velvetleaf [4]): 0 (Herbicidal rate of 5% or less (almost no effect))
G: green foxtail, herbicidal effect rating (green foxtail [5]): 3 (Herbicidal rate of 40% or more and less than 70%)
P: chickweed, herbicidal effect (chickweed [6]): 0 (Herbicidal rate of 5% or less (almost no effect))
herbicidal effect on E (rice flat sedge), rating 0-5 (rice flat sedge): 3 (Herbicidal rate of 40% or more and less than 70%)
H: barnyard grass, herbicidal effect (barnyard grass [7]): 0 (Herbicidal rate of 5% or less (almost no effect))
L: windgrass, herbicidal effect rating (windgrass [8]): 0 (Herbicidal rate of 5% or less (almost no effect))
O: lambsquarters, herbicidal effect (lambsquarters [9]): 4 (Herbicidal rate of 70% or more and less than 90%)
M: velvetleaf, herbicidal effect (velvetleaf [10]): 2 (Herbicidal rate of 20% or more and less than 40%)
herbicidal effect on D (Chinese sprangletop), rating 0-5 (Chinese sprangletop): 2 (Herbicidal rate of 20% or more and less than 40%)
G: green foxtail, herbicidal effect (green foxtail [11]): 3 (Herbicidal rate of 40% or more and less than 70%)
F: southern crabgrass, herbicidal effect rating (southern crabgrass [12]): 2 (Herbicidal rate of 20% or more and less than 40%)
J: blackgrass, herbicidal effect (blackgrass [13]): 0 (Herbicidal rate of 5% or less (almost no effect))
R: persian speedwell, herbicidal effect (persian speedwell): 5 (Herbicidal rate of 90% or more (almost completely withered))
K: Italian ryegrass, herbicidal effect rating (Italian ryegrass [14]): 0 (Herbicidal rate of 5% or less (almost no effect))
O: lambsquarters, herbicidal effect rating (lambsquarters [15]): 5 (Herbicidal rate of 90% or more (almost completely withered))
herbicidal effect on H (barnyard grass), rating 0-5 (barnyard grass [16]): 4 (Herbicidal rate of 70% or more and less than 90%)
N: redroot pigweed, herbicidal effect rating (redroot pigweed [17]): 3 (Herbicidal rate of 40% or more and less than 70%)
F: southern crabgrass, herbicidal effect (southern crabgrass [18]): 0 (Herbicidal rate of 5% or less (almost no effect))
J: blackgrass, herbicidal effect rating (blackgrass [19]): 0 (Herbicidal rate of 5% or less (almost no effect))
H: barnyard grass, herbicidal effect rating (barnyard grass [20]): 0 (Herbicidal rate of 5% or less (almost no effect))
I: wild oat, herbicidal effect (wild oat [21]): 0 (Herbicidal rate of 5% or less (almost no effect))
P: chickweed, herbicidal effect rating (chickweed [22]): 0 (Herbicidal rate of 5% or less (almost no effect))
K: Italian ryegrass, herbicidal effect (Italian ryegrass [23]): 0 (Herbicidal rate of 5% or less (almost no effect))
